Experimental data: article PMC4254016 (Bioorganic & medicinal chemistry, 2014)

Legend:
P. aeruginosa PAO1 = test: Bacterial growth inhibition, wildtype PAO1; assay type: cell-based, Pseudomonas aeruginosa; details: high iron (200 µM FeCl3), 24 hrs
salicylate synthase Irp9 = salicylate synthase Irp9 (Yersinia enterocolitica, UniProt Q9X9I8); assay type: biochemical
ΔpvdA PAO1 = assay type: cell-based, Pseudomonas aeruginosa; details: high iron (200 µM FeCl3), 24 hrs
chorismate mutase EcCM = chorismate mutase EcCM (Escherichia coli, UniProt P0A9J8); assay type: biochemical, E. coli
ΔpchE PAO1 = assay type: cell-based, Pseudomonas aeruginosa; details: high iron (200 µM FeCl3), 24 hrs
[1] = biological target: isochorismate-pyruvate lyase PchB (Pseudomonas aeruginosa, UniProt Q51507); assay type: biochemical
PchB = details: read-out: Ki PchB; cited from earlier work

Chain of chorismate mutase EcCM (P0A9J8 1-92): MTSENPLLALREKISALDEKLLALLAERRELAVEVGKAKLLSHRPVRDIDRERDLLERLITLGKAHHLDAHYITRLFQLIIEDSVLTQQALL
Chain of salicylate synthase Irp9 (Q9X9I8 1-434): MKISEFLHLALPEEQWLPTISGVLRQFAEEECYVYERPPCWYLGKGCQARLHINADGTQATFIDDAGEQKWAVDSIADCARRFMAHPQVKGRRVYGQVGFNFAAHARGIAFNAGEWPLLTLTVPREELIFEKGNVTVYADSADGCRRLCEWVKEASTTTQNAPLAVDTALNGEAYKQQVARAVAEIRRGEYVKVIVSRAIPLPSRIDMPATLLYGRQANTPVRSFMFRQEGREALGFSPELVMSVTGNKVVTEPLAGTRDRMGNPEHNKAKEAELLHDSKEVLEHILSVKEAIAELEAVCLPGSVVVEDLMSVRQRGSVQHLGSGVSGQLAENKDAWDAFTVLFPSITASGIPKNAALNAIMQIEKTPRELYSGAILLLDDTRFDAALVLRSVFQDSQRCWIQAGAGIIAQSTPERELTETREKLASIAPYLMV
Chain of isochorismate-pyruvate lyase PchB (Q51507 whole entry): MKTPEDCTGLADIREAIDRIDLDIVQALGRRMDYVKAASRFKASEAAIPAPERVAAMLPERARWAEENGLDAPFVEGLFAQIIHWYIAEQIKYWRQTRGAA

Row | SMILES | EC50 growth inhibition PAO1 p.a. (P. aeruginosa PAO1) | mode of inhibition of Irp9 (salicylate synthase Irp9) | EC50 growth inhibition ΔpvdA p.a. (ΔpvdA PAO1) | mode of inhibition of EcCM (chorismate mutase EcCM) | EC50 growth inhibition ΔpchE p.a. (ΔpchE PAO1) | mode of inhibition of PchB [1] | Ki (PchB) [mM]
1 | COC(=O)Oc1c([N+](=O)[O-])cc2oc(=O)sc2c1[N+](=O)[O-] [Compound 10] | did not cause growth inhibition | competitive inhibitor | did not cause growth inhibition | competitive inhibitors | did not cause growth inhibition | competitive inhibitors | –
2 | O=P(O)(O)C12CC3CC(CC(C3)C1)C2 [adamantane-1-phosphonate] | – | – | – | – | – | – | > 5
